Assay results published in publication PMC8878748, “Broad-Spectrum Antiviral Activity of the Amphibian Antimicrobial Peptide Temporin L and Its Analogs” (International Journal of Molecular Sciences, 2022).
Where a SMILES comes first, the peptide text is derived from it. [ ]: non-standard residue; d: D form. The star is where a group is joined. X1 = CC(C)CCC[C@@H](C)[C@H]1CC[C@H]2[C@@H]3CC=C4C[C@@H](OC(=O)CCOCCOCCOCCOCCNC(=O)C*)CC[C@]4(C)[C@H]3CC[C@]12C; Hyp = O=C(O)[C@@H]1C[C@@H](O)CN1; dHyp = O=C(O)[C@H]1C[C@H](O)CN1; Undecanoyl = CCCCCCCCCCC(=O)*; Aic = NC1(C(=O)O)Cc2ccccc2C1; dNle = CCCC[C@@H](N)C(=O)O; Nle = CCCC[C@H](N)C(=O)O

Experiments:
[1] = MTT cytotoxicity assay on Vero cells; format: cell-based; settings: MTT, calculated after 2 h of peptide treatment
[2] = Table 2; cited from earlier work
[3] = tested on: influenza virus (subtype H1N1); settings: influenza virus (subtype, 2 h)
MeV = settings: 2 h
HPIV-3 = settings: 2 h
HCoV-229E = settings: 2 h
HCoV-OC43 = settings: 2 h
[4] = tested on: peripheral blood mononuclear cells (PBMCs); test: MTT cytotoxicity assay on PBMCs; format: cell-based, human; settings: 2 h and 24 h
Description: Vero cells (ATCC CCL-81, Manassas, VA, USA) and Vero/hSLAM cells (ECACC 04091501, Porton Down, UK) and Madin Darby canine kidney (MDCK, CCL-34) were grown in Dulbecco’s Modified Eagle Medium (DMEM) with 4.5 g/L glucose (Microtech, Naples, Italy) supplemented with 100 IU/mL penicillin and 100 μg/mL streptomycin (Himedia, Naples, Italy) and 10% Fetal Bovine Serum (Microtech). PBMCs were isolated as follow. Buffy coats acquired from a healthy anonymous donor were used to isolate PBMCs on a Ficoll-Hypaque density gradient (Sigma-Aldrich) according to standard procedures. Then, PBMCs were grown (5 × 10^6/mL) in RPMI 1640 (Microtech) supplemented with 10% FBS, 60 IU/mL of interleukin-2 (IL-2, Sigma-Aldrich) and 2 µg/mL of phytohemagglutinin (PHA) (Sigma-Aldrich).
Vero cells were seeded in 96-well microtiter tissue culture plates (5 × 10^3 cells /well) and incubated for 24 h at 37 °C in 5% CO2. PBMCs were isolated and then cultured at a concentration of 1 × 10^5 cells/well.
The cytotoxicity for both cell types was evaluated by the MTT (Sigma-Aldrich) assay based on the reduction of the yellowish MTT to the insoluble and dark blue formazan by viable and metabolically active cells. Temporin-based peptides were tested at […] concentrations (0.1, 1, 6.25, 12.5, 25, 50 and 100 µM) after 2 and 24 h. At the end of incubation, 100 μL of an MTT solution (5 mg/mL) was added in each well and incubated for 3 h at 37 °C. The supernatant was discarded and 100 μL of DMSO 100% (Sigma Aldrich) was added (to dissolve the formazan salts) for 10 min with vigorous agitation at room temperature. Cytotoxicity was evaluated by spectrophotometric reading at 540 nm. The viability of Vero cells in each well was presented as a percentage of control cells. All experiments were performed in triplicate, and the means standard deviations are reported. Nonlinear regression analysis was performed using GraphPad Prism software (GraphPad Software, San Diego, CA, USA) to determine the CC50.

human erythrocytes = tested on: human erythrocytes
Description: The hemolytic activity of the peptides was determined using fresh human erythrocytes from healthy donors as reported previously. Briefly, the blood was centrifuged, and the erythrocytes were washed three times with 0.9% NaCl. Peptides were added to the erythrocyte suspension (5% v/v), at a final concentration ranging from 0.1 to 100 μM in a final volume of 100 μL. The samples were incubated with agitation at 37 °C for 60 min. The release of hemoglobin was monitored by measuring the absorbance (Abs) of the supernatant at 540 nm. The control for zero hemolysis (blank) consisted of erythrocytes suspended in the presence of peptide solvent. Hypotonically lysed erythrocytes were used as a standard for 100% hemolysis. The percentage of hemolysis was calculated using the equation: % hemolysis = [(Abssample − Absblank)/(Abstotal lysis − Absblank)] × 100

Row | Compound | CC50 [1] [µM] | %Helix in DPC [2] [%] | IC50 [3] [µM] | IC90 [3] [µM] | IC50 (MeV) [µM] | IC90 (MeV) [µM] | IC50 (HPIV-3) [µM] | IC90 (HPIV-3) [µM] | IC50 (HCoV-229E) [µM] | IC90 (HCoV-229E) [µM] | IC50 (HCoV-OC43) [µM] | IC90 (HCoV-OC43) [µM] | cytotoxicity on PBMCs [4] | hemolytic activity (human erythrocytes; at their antiviral concentrations) | concentration showing residual hemolytic activity (human erythrocytes; red blood cells) [µM]
1 | CC[C@H](C)[C@H](NC(=O)[C@H](CCCNC(=N)N)NC(=O)[C@@H]1C[C@@H](O)CN1C(=O)[C@@H](CC(C)C)NC(=O)[C@H](Cc1ccccc1)NC(=O)[C@H](CCCCN)NC(=O)[C@H](CO)NC(=O)[C@H](Cc1ccccc1)NC(=O)[C@H](Cc1c[nH]c2ccccc12)NC(=O)[C@@H]1CCCN1C(=O)[C@@H](NC(=O)[C@@H](N)Cc1ccccc1)C(C)C)C(=O)N[C@@H](CC(C)C)C(N)=O [TL4, H-Phe-Val-Pro-Trp-Phe-Ser-Lys-Phe-DLeu-Hyp-Arg-Ile-Leu-NH2] (H-FVPWFSKF[dL][Hyp]RIL-NH2) | 60.2 | 18 | 16.3 | 31.7 | > 50 | > 50 | > 50 | > 50 | – | – | – | – | – | – | –
2 | CC[C@H](C)[C@H](NC(=O)[C@H](CCCNC(=N)N)NC(=O)[C@H]1C[C@H](O)CN1C(=O)[C@@H](CC(C)C)NC(=O)[C@H](Cc1ccccc1)NC(=O)[C@H](CCCCN)NC(=O)[C@H](CO)NC(=O)[C@H](Cc1ccccc1)NC(=O)[C@H](Cc1c[nH]c2ccccc12)NC(=O)[C@@H]1CCCN1C(=O)[C@@H](NC(=O)[C@@H](N)Cc1ccccc1)C(C)C)C(=O)N[C@@H](CC(C)C)C(N)=O [TL5, H-Phe-Val-Pro-Trp-Phe-Ser-Lys-Phe-DLeu-DHyp-Arg-Ile-Leu-NH2] (H-FVPWFSKF[dL][dHyp]RIL-NH2) | > 100 | 9 | > 50 | > 50 | > 50 | > 50 | > 50 | > 50 | > 50 | > 50 | > 50 | > 50 | – | – | –
3 | CCCC[C@H](NC(=O)[C@@H](CC(C)C)NC(=O)[C@H](Cc1ccccc1)NC(=O)[C@H](CCCCN)NC(=O)[C@H](CO)NC(=O)[C@H](Cc1ccccc1)NC(=O)[C@H](Cc1c[nH]c2ccccc12)NC(=O)[C@@H]1CCCN1C(=O)[C@@H](NC(=O)[C@@H](N)Cc1ccccc1)C(C)C)C(=O)N[C@@H](CCCNC(=N)N)C(=O)N[C@H](C(=O)N[C@@H](CC(C)C)C(N)=O)[C@@H](C)CC [TL6, H-Phe-Val-Pro-Trp-Phe-Ser-Lys-Phe-DLeu-Nle-Arg-Ile-Leu-NH2] (H-FVPWFSKF[dL][Nle]RIL-NH2) | 64.5 | 51 | 2.66 | 9.34 | 34.6 | > 50 | 32.4 | > 50 | 2.08 | 13.1 | 0.97 | 10 | minor damage | – | –
4 | CCCC[C@H](NC(=O)[C@@H](CC(C)C)NC(=O)[C@H](Cc1ccccc1)NC(=O)[C@H](CCCCN)NC(=O)[C@H](CO)NC(=O)[C@H](Cc1ccccc1)NC(=O)[C@H](Cc1c[nH]c2ccccc12)NC(=O)[C@@H]1CCCN1C(=O)[C@@H](NC(=O)[C@H](Cc1ccccc1)NC(=O)[C@@H](N)CSCC(=O)NCCOCCOCCOCCOCCC(=O)O[C@H]1CC[C@@]2(C)C(=CC[C@H]3[C@@H]4CC[C@H]([C@H](C)CCCC(C)C)[C@@]4(C)CC[C@@H]32)C1)C(C)C)C(=O)N[C@@H](CCCNC(=N)N)C(=O)N[C@H](C(=O)N[C@@H](CC(C)C)C(N)=O)[C@@H](C)CC [TL6.3, H-[Cholesterol-PEG4]-Cys-Phe-Val-Pro-Trp-Phe-Ser-Lys-Phe-DLeu-Nle-Arg-Ile-Leu-NH2] (H-C(X1)FVPWFSKF[dL][Nle]RIL-NH2; N-terminus assumed) | > 100 | – | 2.55 | 5.89 | 22.3 | 31.1 | – | – | – | – | – | – | minor damage | – | –
5 | CCCCCCCCCCC(=O)N[C@@H](Cc1ccccc1)C(=O)N[C@H](C(=O)N1CCC[C@H]1C(=O)N[C@@H](Cc1c[nH]c2ccccc12)C(=O)N[C@@H](Cc1ccccc1)C(=O)N[C@@H](CO)C(=O)N[C@@H](CCCCN)C(=O)N[C@@H](Cc1ccccc1)C(=O)N[C@H](CC(C)C)C(=O)N[C@@H](CCCC)C(=O)N[C@@H](CCCNC(=N)N)C(=O)N[C@H](C(=O)N[C@@H](CC(C)C)C(N)=O)[C@@H](C)CC)C(C)C [TL6.5, H-Undecanoic acid-Phe-Val-Pro-Trp-Phe-Ser-Lys-Phe-DLeu-Nle-Arg-Ile-Leu-NH2] (Undecanoyl-FVPWFSKF[dL][Nle]RIL-NH2) | > 100 | – | < 0.1 | < 0.1 | 10 | 29.2 | – | – | – | – | – | – | minor damage | – | –
6 | CCCC[C@@H](NC(=O)[C@@H](CC(C)C)NC(=O)[C@H](Cc1ccccc1)NC(=O)[C@H](CCCCN)NC(=O)[C@H](CO)NC(=O)[C@H](Cc1ccccc1)NC(=O)[C@H](Cc1c[nH]c2ccccc12)NC(=O)[C@@H]1CCCN1C(=O)[C@@H](NC(=O)[C@@H](N)Cc1ccccc1)C(C)C)C(=O)N[C@@H](CCCNC(=N)N)C(=O)N[C@H](C(=O)N[C@@H](CC(C)C)C(N)=O)[C@@H](C)CC [TL7, H-Phe-Val-Pro-Trp-Phe-Ser-Lys-Phe-DLeu-DNle-Arg-Ile-Leu-NH2] (H-FVPWFSKF[dL][dNle]RIL-NH2) | 32.2 | 30 | 4.45 | 13.5 | > 50 | > 50 | > 50 | > 50 | – | – | – | – | – | – | –
7 | CC[C@H](C)[C@H](NC(=O)[C@H](CCCNC(=N)N)NC(=O)[C@@H](Cc1c[nH]c2ccccc12)NC(=O)[C@@H](CC(C)C)NC(=O)[C@H](Cc1ccccc1)NC(=O)[C@H](CCCCN)NC(=O)[C@H](CO)NC(=O)[C@H](Cc1ccccc1)NC(=O)[C@H](Cc1c[nH]c2ccccc12)NC(=O)[C@@H]1CCCN1C(=O)[C@@H](NC(=O)[C@@H](N)Cc1ccccc1)C(C)C)C(=O)N[C@@H](CC(C)C)C(N)=O [TL11, H-Phe-Val-Pro-Trp-Phe-Ser-Lys-Phe-DLeu-DTrp-Arg-Ile-Leu-NH2] (H-FVPWFSKF[dL][dW]RIL-NH2) | 24.1 | 40 | 3.05 | 9.77 | 43.2 | > 50 | – | – | – | – | – | – | – | – | –
8 | CC[C@H](C)[C@H](NC(=O)[C@H](CCCNC(=N)N)NC(=O)C1(NC(=O)[C@@H](CC(C)C)NC(=O)[C@H](Cc2ccccc2)NC(=O)[C@H](CCCCN)NC(=O)[C@H](CO)NC(=O)[C@H](Cc2ccccc2)NC(=O)[C@H](Cc2c[nH]c3ccccc23)NC(=O)[C@@H]2CCCN2C(=O)[C@@H](NC(=O)[C@@H](N)Cc2ccccc2)C(C)C)Cc2ccccc2C1)C(=O)N[C@@H](CC(C)C)C(N)=O [TL12, H-Phe-Val-Pro-Trp-Phe-Ser-Lys-Phe-DLeu-Aic-Arg-Ile-Leu-NH2] (H-FVPWFSKF[dL][Aic]RIL-NH2) | 8.28 | 18 | 0.71 | 13.9 | 30.4 | > 50 | 33.8 | > 50 | 0.74 | 20.9 | 0.62 | 13.2 | – | – | –
9 | H-FVQWFSKFLGRIL-NH2 [TL, H-Phe-Val-Gln-Trp-Phe-Ser-Lys-Phe-Leu-Gly-Arg-Ile-Leu-NH2, reference compound] | 19.6 | – | – | – | – | – | – | – | – | – | – | – | minor damage | practically devoid of hemolytic activity | ≥ 50
